The record followed here is article PMC8748404 (Angewandte Chemie (International ed. in English), 2021).

The target in experiment [1] is E. coli dihydrofolate reductase (eDHFR) (Escherichia coli, UniProt P0ABQ4). In words: inhibition assays of eDHFR. The experiment is classed as biochemical. The conditions noted are these: eDHFR inhibition assay.
A further experiment deals with eDHFR (Escherichia coli, UniProt P0ABQ4). In words: FP assay, displacement of fluorescein-labeled methotrexate. In kind it is binding, E. coli. The conditions noted are these: displacement of fluorescein-labeled MTX from eDHFR.
Chain of eDHFR (P0ABQ4 whole entry): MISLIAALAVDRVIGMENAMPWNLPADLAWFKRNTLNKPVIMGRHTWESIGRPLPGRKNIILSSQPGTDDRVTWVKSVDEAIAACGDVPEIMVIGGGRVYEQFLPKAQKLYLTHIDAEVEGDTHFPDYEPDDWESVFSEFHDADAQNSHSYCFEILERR
The next experiment deals with T1, human DHFR (Homo sapiens, UniProt P00374).
T1 sequence (P00374 1-187): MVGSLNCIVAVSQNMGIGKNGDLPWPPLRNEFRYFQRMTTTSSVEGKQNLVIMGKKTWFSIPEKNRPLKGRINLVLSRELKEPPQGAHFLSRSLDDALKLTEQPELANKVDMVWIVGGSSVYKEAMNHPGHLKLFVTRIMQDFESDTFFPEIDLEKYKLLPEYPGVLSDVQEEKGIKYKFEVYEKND
In words: inhibition of human DHFR. The experiment is classed as biochemical.

The target of a further experiment is HaloTag-eDHFR (Escherichia coli, UniProt P0ABQ4). In words: DNA-based ligand displacement screen of LOPAC library with DNA-linked TMP probe. In kind it is binding, E. coli. The conditions noted are these: LOPAC1280 screen against HaloTag-eDHFR.
Chain of HaloTag-eDHFR (P0ABQ4 whole entry): as the sequence (P0ABQ4 whole entry) above
Another experiment relates to BRD7/9. In words: concurrent DNA-based displacement screening, DNA-bromosporine probe. In kind it is binding. The conditions noted are these: screen of 1000 compounds, TargetMol Bioactive Compound Library.
For experiment [2], the system named is PB1-BD2, PB1-BD4, PB1-BD5, BRD7 and BRD9. The experiment in a line: concurrent screening against five bromodomain proteins. The conditions noted are these: five bromodomain proteins screened concurrently. The experiment is classed as binding.
A further experiment concerns the target PB1-BD2/4/5. The experiment in a line: DNA-based ligand displacement assay, IC50 determination of hit compounds. In kind it is binding.

Chain of E. coli dihydrofolate reductase (eDHFR) (P0ABQ4 whole entry): as the sequence (P0ABQ4 whole entry) above

One may read the Ki as the dissociation constant of the complex between target and ligand, obtained from inhibition or displacement. Lower therefore signals tighter binding. Broadly, the IC50 is the concentration that inhibits the measured activity by half. In experiment [1], `CN(CCOc1ccc(C[C@H](Nc2ccccc2C(=O)c2ccccc2)C(=O)O)cc1)c1ccccn1` [GW1929] had a Ki of 0.41 µM. Further, the IC50 on eDHFR is 7.9 µM. At human DHFR, the “inhibition of human DHFR” value was “modest inhibition”. Besides, at HaloTag-eDHFR, the “recovery of DNA-linked probe” value was “low recovery”.
Consider `CN1C(=O)c2sccc2N(C)c2nc(Nc3ccc(S(N)(=O)=O)cc3)ncc21` [XMU-MP-1], for which, in the experiment with BRD7/9, the “displacement of DNA-bromosporine probe” value is given as “significantly displaced”. For the same compound, the “selectivity in concurrent screen” value in experiment [2] was “selectivity towards BRD7/9 over PB1-BD2/4/5”.
In the case of `Cc1cc(C)c(Nc2ccnc(Nc3ccc(C#N)cc3)n2)c(C)c1` [dapivirine], the “selectivity in concurrent screen” value in experiment [2] is “selectivity for PB1-BD4”. For the same compound, at PB1-BD2/4/5, the “binding to respective bromodomains (IC50 determination)” value was “potent binding”.
